US9918964B2, “Reducing platelet activation, aggregation and platelet-stimulated thrombosis or blood coagulation by reducing mitochondrial respiration” (priority 2010, dated 2018)
“And” between values parts separate entries of the source, which are not always exact repeats. Identical values can stand only once. Like-named read-outs stand apart in the source and are kept apart here.

System: platelets in whole blood
Test: Platelet function testing with the Hemostasis Mechanism Analyzer (HMA): clumping, sticking, clotting in whole blood
Type: cell-based, human
Conditions: for activity at 670 µg/mL / activity at 3300 µg/mL / activity at 6700 µg/mL / activity at 5000 µg/mL / activity at 700 µg/mL / activity at 11700 µg/mL / activity at 23300 µg/mL: Homo sapiens, Platelet; for activity at 670 µg/mL: Dosage (mg/ml) 0.67; for activity at 3300 µg/mL: Dosage (mg/ml) 3.3; for activity at 5000 µg/mL: Dosage (mg/ml) 5; for activity at 700 µg/mL: Dosage (mg/ml) 0.7; for activity at 11700 µg/mL: Dosage (mg/ml) 11.7; for activity at 23300 µg/mL: Dosage (mg/ml) 23.3
[1] = in vitro whole blood assay, clumping, sticking, clotting
[2] = 0 dosage = 100, read-out: % clot time increase
[3] = 0 dosage = 100, read-out: % clump time increase
[4] = 0 dosage = 100, read-out: % stick time increase
[5] = Dosage (mg/ml) 6.7, 0 dosage = 100, read-out: % clot time increase
[6] = Dosage (mg/ml) 6.7, 0 dosage = 100, read-out: % clump time increase
[7] = Dosage (mg/ml) 6.7, 0 dosage = 100, read-out: % stick time increase

## Oc1ccc(/C=C/c2cc(O)cc(O)c2)cc1 [Compound 89, 5-[(E)-2-(4-hydroxyphenyl)vinyl] benzene-1,3-diol]
  activity in the platelet assays (active agent or inactive): none of them were active agents

## c1ccc(-c2cnn[nH]2)cc1 [Compound 2, 5-phenyl-1H-triazole]
[1]
  activity in the platelet assays (active agent or inactive): met the criteria for active agents

## COCCc1nn[nH]n1 [Compound 68, 5-(2-methoxyethyl)-2H-tetrazole]
[2]
  activity at 670 µg/mL: 108%
  activity at 3300 µg/mL: 107%
[3]
  activity at 670 µg/mL: 100%
  activity at 3300 µg/mL: 100%
[4]
  activity at 670 µg/mL: 110%
  activity at 3300 µg/mL: 114%
[5]
  activity at 6700 µg/mL: 129%
[6]
  activity at 6700 µg/mL: 186%
[7]
  activity at 6700 µg/mL: 175%

## Cn1cnnc1S [Compound 33, 4-methyl-1,2,4-triazole-3-thiol]
[2]
  activity at 5000 µg/mL: 100%
[3]
  activity at 5000 µg/mL: 100%
[4]
  activity at 5000 µg/mL: 119%
[5]
  activity at 6700 µg/mL: 108%
[6]
  activity at 6700 µg/mL: 115%
[7]
  activity at 6700 µg/mL: 123%

## OC(c1ccccc1)c1nnn[nH]1 (stereo not shown) [Compound 24, phenyl(1H-tetrazol-5-yl)methanol]
[2]
  activity at 700 µg/mL: 96%
  activity at 3300 µg/mL: 105%
  activity at 5000 µg/mL: 113%
[3]
  activity at 700 µg/mL: 109%
  activity at 3300 µg/mL: 126%
  activity at 5000 µg/mL: 156%
[4]
  activity at 700 µg/mL: 105%
  activity at 3300 µg/mL: 124%
  activity at 5000 µg/mL: 152%
[5]
  activity at 6700 µg/mL: 116%
[6]
  activity at 6700 µg/mL: 160%
[7]
  activity at 6700 µg/mL: 143%

## Cc1ncsc1CCCl [Compound 45, 5-(2-chloroethyl)-4-methyl-thiazole]
read-out: % clot time increase
  activity at 6700 µg/mL: 101%
read-out: % clump time increase
  activity at 6700 µg/mL: 119%
read-out: % stick time increase
  activity at 6700 µg/mL: 108%

## N=C(N)NC(N)=S [Compound 102, carbamimidoylthiourea]
[1]
  activity in the platelet assays (active agent or inactive): none of them were active agents

## Cc1ncsc1CCO [Compound 60, 2-(4-methylthiazol-5-yl)ethanol]
[2]
  activity at 700 µg/mL: 100%
  activity at 3300 µg/mL: 104%
  activity at 5000 µg/mL: 110%
[3]
  activity at 700 µg/mL: 108%
  activity at 3300 µg/mL: 136%
  activity at 5000 µg/mL: 158%
[4]
  activity at 700 µg/mL: 103%
  activity at 3300 µg/mL: 135%
  activity at 5000 µg/mL: 155%
[5]
  activity at 6700 µg/mL: 115%
[6]
  activity at 6700 µg/mL: 192%
[7]
  activity at 6700 µg/mL: 182%

## 1H-triazole [Compound 99]
  % clot time increase: 108% and 103%
  % clump time increase: 103% and 99%
  % stick time increase: 99% and 104%

## COc1ccc(-c2nnn[nH]2)cc1 [Compound 26, 5-(4-methoxyphenyl)-1H-tetrazole]
[5]
  activity at 6700 µg/mL: 102%
[6]
  activity at 6700 µg/mL: 122%
[7]
  activity at 6700 µg/mL: 118%

## CCCCC[C@H](O)CC(=O)CCc1ccc(O)c(OC)c1 [Compound 88, (5S)-5-hydroxy-1-(4-hydroxy-3-methoxy-phenyl)decan-3-one]
[2]
  activity at 3300 µg/mL: 104%
  activity at 11700 µg/mL: 104%
  activity at 23300 µg/mL: 100%
[3]
  activity at 3300 µg/mL: 107%
  activity at 11700 µg/mL: 111%
  activity at 23300 µg/mL: 128%
[4]
  activity at 3300 µg/mL: 100%
  activity at 11700 µg/mL: 110%
  activity at 23300 µg/mL: 132%
[5]
  activity at 6700 µg/mL: 102%
[6]
  activity at 6700 µg/mL: 106%
[7]
  activity at 6700 µg/mL: 101%
[1]
  activity in the platelet assays (active agent or inactive): none of them were active agents
